Measurements from patent US20190315814A1, “LANTIBIOTIC VARIANTS AND USES THEREOF” (priority 2016, published 2019).
In brackets after ≈: the same amount, converted by molar mass. Where two headings read alike, the source gives them in different places. Where a SMILES comes first, the peptide text is derived from it.

Assays:
[1] = system: Clostridium scindens (ATCC 35704)
[2] = system: Lactobacillus acidophilus (CCUG 4356)
[3] = system: Peptostreptococcus anaerobius (ATCC 27337)
[4] = system: VRE Enterococcus faecalis; conditions: VRE
[5] = system: Eggerthella lenta (ATCC 27337)
[6] = simulated gi fluid
in vitro = assay: in vitro
Procedure: Assay incubation conditions included […] simulated gastric fluid (SGF, USP 39 Test Solution; 2 g/L NaCl, 7 mL/L glacial HCl, pH 1.4) containing 1.75 mg/mL Pepsin (3200-4500 U/mg) mixed with 7.5 μL of 10 mg/mL variant (or positive control, NH2-Met-Arg-Phe-Ala-OH, MRFA, CAS#67368-29-0) for a final concentration of 300 μg/ml variant in a microfuge tube. Samples were incubated at 37° C. and analyzed using HPLC or LC-MS for loss of substrate. The percent remaining, elimination rate constant (Ke), and in vitro protein half-lives were calculated. A control of SGF without enzyme was also run and analyzed in the same manner for each variant.

[7] = FaSSIF + 1% pancreatin + 3 μg/ml trypsin + 3 μg/ml chymotrypsin half-life

Row | MIC to H. Pylori without EDTA (Heliobacter pylori; without EDTA) | SMILES | MIC C. scindens [1] | MIC L. acidophilus [2] | MIC P. anaerobius [3] | MIC VRE ATCC 51575 [4] | MIC VRE CCUG 47775 [4] | MIC VRE ATCC 700221 (VRE Enterococcus faecium) | MIC to H. Pylori without EDTA (Heliobacter pylori) | MIC to H. Pylori with 0.05M EDTA (Heliobacter pylori) | MIC E. lenta [5] | half-life [6, 7] | half-life ([6]; FaSSIF only half-life) | half-life at 300 μg/ml (in vitro; simulated gastric fluid without enzyme, pH 1.4) | half-life (in vitro; simulated gi fluid)
1 |  | C=C1NC(=O)[C@H](Cc2c[nH]c3ccccc23)NC(=O)[C@H](NC(=O)[C@H](CCCCN)NC(=O)[C@H](C)N)CSC[C@@H](C(=O)N[C@H]2C(=O)N3CCC[C@H]3C(=O)NCC(=O)N[C@H](C(=O)N[C@@H](C)C(=O)N[C@@H](C)C(=O)NC(=CC)C(=O)NCC(=O)N[C@@H]3CSC[C@@H]4NC(=O)[C@H](Cc5ccc(O)cc5)NC(=O)[C@@H](CS/C=C\NC4=O)NC(=O)[C@H](CC(N)=O)NC(=O)[C@H](Cc4ccccc4)NC3=O)CS[C@H]2C)NC(=O)[C@H](CC(C)C)NC1=O [F1A R13A] | 16 µg/mL (≈ 7.61 µM) | 8 µg/mL (≈ 3.8 µM) | 2 µg/mL (≈ 0.951 µM) | 32 µg/mL (≈ 15.2 µM) | 32 µg/mL (≈ 15.2 µM) | 16 µg/mL (≈ 7.61 µM) | >64 µg/mL | 64 µg/mL | 4 µg/mL (≈ 1.9 µM) | 2.17 h | > 12 h |  | 
2 |  | C=C1NC(=O)[C@H](Cc2c[nH]c3ccccc23)NC(=O)[C@H](NC(=O)[C@H](CCCCN)NC(=O)[C@@H](N)CO)CSC[C@@H](C(=O)N[C@H]2C(=O)N3CCC[C@H]3C(=O)NCC(=O)N[C@H](C(=O)N[C@@H](C)C(=O)N[C@@H](CC(N)=O)C(=O)NC(=CC)C(=O)NCC(=O)N[C@@H]3CSC[C@@H]4NC(=O)[C@H](Cc5ccc(O)cc5)NC(=O)[C@@H](CS/C=C\NC4=O)NC(=O)[C@H](CC(N)=O)NC(=O)[C@H](Cc4ccccc4)NC3=O)CS[C@H]2C)NC(=O)[C@H](CC(C)C)NC1=O [F1S R13N] | 32 µg/mL (≈ 14.8 µM) | 16 µg/mL (≈ 7.4 µM) | 8 µg/mL (≈ 3.7 µM) | >64 µg/mL | >64 µg/mL | 64 µg/mL (≈ 29.6 µM) | >64 µg/mL | >64 µg/mL | 16 µg/mL (≈ 7.4 µM) | > 12 h | > 12 h |  | 
3 |  | C=C1NC(=O)[C@H](Cc2c[nH]c3ccccc23)NC(=O)[C@H](NC(=O)[C@H](CCCCN)NC(=O)[C@@H](N)[C@@H](C)CC)CSC[C@@H](C(=O)N[C@H]2C(=O)N3CCC[C@H]3C(=O)NCC(=O)N[C@H](C(=O)N[C@@H](C)C(=O)N[C@@H](CC(N)=O)C(=O)NC(=CC)C(=O)N[C@@H](C)C(=O)N[C@@H]3CSC[C@@H]4NC(=O)[C@H](Cc5ccc(O)cc5)NC(=O)[C@@H](CS/C=C\NC4=O)NC(=O)[C@H](CC(N)=O)NC(=O)[C@H](Cc4ccccc4)NC3=O)CS[C@H]2C)NC(=O)[C@H](CC(C)C)NC1=O [F1I R13N G15A] | 16 µg/mL (≈ 7.26 µM) | 8 µg/mL (≈ 3.63 µM) | 4 µg/mL (≈ 1.82 µM) | 32 µg/mL (≈ 14.5 µM) | >64 µg/mL | 32 µg/mL (≈ 14.5 µM) | >64 µg/mL | 64 µg/mL | 8 µg/mL (≈ 3.63 µM) | > 12 h | > 12 h |  | 
4 |  | C=C1NC(=O)[C@H](CCSC)NC(=O)[C@H](NC(=O)[C@H](CCCCN)NC(=O)[C@@H](N)[C@@H](C)CC)CSC[C@@H](C(=O)N[C@H]2C(=O)N3CCC[C@H]3C(=O)NCC(=O)N[C@H](C(=O)N[C@@H](C)C(=O)N[C@@H](C)C(=O)NC(=CC)C(=O)NCC(=O)N[C@@H]3CSC[C@@H]4NC(=O)[C@H](Cc5ccc(O)cc5)NC(=O)[C@@H](CS/C=C\NC4=O)NC(=O)[C@H](CC(N)=O)NC(=O)[C@H](Cc4ccccc4)NC3=O)CS[C@H]2C)NC(=O)[C@H](CC(C)C)NC1=O [F1I W4M R13A] | 32 µg/mL (≈ 15.3 µM) | 32 µg/mL (≈ 15.3 µM) | 8 µg/mL (≈ 3.83 µM) | >64 µg/mL | >64 µg/mL | >64 µg/mL | 64 µg/mL (≈ 30.6 µM) | 64 µg/mL | 16 µg/mL (≈ 7.65 µM) | 5.82 h | > 12 h |  | 
5 | 0.5 µg/mL (≈ 1.13 µM) | CN(C)[C@@H]1C(O)=C(C(N)=O)C(=O)[C@@]2(O)C(O)=C3C(=O)c4c(O)cccc4[C@@](C)(O)[C@H]3C[C@@H]12 [Tetracycline, reference compound] |  |  |  |  |  |  |  | 0.25 µg/mL |  |  |  |  | 
6 |  | C=C1NC(=O)[C@H](Cc2c[nH]c3ccccc23)NC(=O)[C@H](NC(=O)[C@H](CCCCN)NC(=O)[C@H](C)N)CSC[C@@H](C(=O)N[C@H]2C(=O)N3CCC[C@H]3C(=O)NCC(=O)N[C@H](C(=O)N[C@@H](C)C(=O)NCC(=O)NC(=CC)C(=O)NCC(=O)N[C@@H]3CSC[C@@H]4NC(=O)[C@H](Cc5ccc(O)cc5)NC(=O)[C@@H](CS/C=C\NC4=O)NC(=O)[C@H](CC(N)=O)NC(=O)[C@H](Cc4ccccc4)NC3=O)CS[C@H]2C)NC(=O)[C@H](CC(C)C)NC1=O [F1A R13G] | 32 µg/mL (≈ 15.3 µM) | 16 µg/mL (≈ 7.66 µM) | 4 µg/mL (≈ 1.91 µM) | >64 µg/mL | >64 µg/mL | 32 µg/mL (≈ 15.3 µM) | >64 µg/mL | >64 µg/mL | 16 µg/mL (≈ 7.66 µM) | 2.07 h | 4.98 h |  | 
7 |  | C=C1NC(=O)[C@H](Cc2c[nH]c3ccccc23)NC(=O)[C@H](NC(=O)[C@H](CCCCN)NC(=O)CN)CSC[C@@H](C(=O)N[C@H]2C(=O)N3CCC[C@H]3C(=O)NCC(=O)N[C@H](C(=O)N[C@@H](C)C(=O)N[C@@H](CC(N)=O)C(=O)NC(=CC)C(=O)NCC(=O)N[C@@H]3CSC[C@@H]4NC(=O)[C@H](Cc5ccc(O)cc5)NC(=O)[C@@H](CS/C=C\NC4=O)NC(=O)[C@H](CC(N)=O)NC(=O)[C@H](Cc4ccccc4)NC3=O)CS[C@H]2C)NC(=O)[C@H](CC(C)C)NC1=O [F1G R13N] | 16 µg/mL (≈ 7.5 µM) | 8 µg/mL (≈ 3.75 µM) | 4 µg/mL (≈ 1.88 µM) | >64 µg/mL | >64 µg/mL | 32 µg/mL (≈ 15 µM) | >64 µg/mL | >64 µg/mL | 16 µg/mL (≈ 7.5 µM) | 3.75 h | > 12 h |  | 
8 |  | C=C1NC(=O)[C@H](Cc2c[nH]c3ccccc23)NC(=O)[C@H](NC(=O)[C@H](CCCCN)NC(=O)[C@@H](N)[C@@H](C)O)CSC[C@@H](C(=O)N[C@H]2C(=O)N3CCC[C@H]3C(=O)NCC(=O)N[C@H](C(=O)N[C@@H](C)C(=O)NCC(=O)NC(=CC)C(=O)NCC(=O)N[C@@H]3CSC[C@@H]4NC(=O)[C@H](Cc5ccc(O)cc5)NC(=O)[C@@H](CS/C=C\NC4=O)NC(=O)[C@H](CC(N)=O)NC(=O)[C@H](Cc4ccccc4)NC3=O)CS[C@H]2C)NC(=O)[C@H](CC(C)C)NC1=O [F1T R13G] | 64 µg/mL (≈ 30.2 µM) | 8 µg/mL (≈ 3.77 µM) | 8 µg/mL (≈ 3.77 µM) | 64 µg/mL (≈ 30.2 µM) | 64 µg/mL (≈ 30.2 µM) | 32 µg/mL (≈ 15.1 µM) | >64 µg/mL | >64 µg/mL | 8 µg/mL (≈ 3.77 µM) | 1.9 h | > 12 h |  | 
9 |  | CSCC[C@H](N)C(=O)N[C@@H](CCCNC(=N)N)C(=O)N[C@@H](Cc1ccccc1)C(=O)N[C@@H](C)C(=O)O [Positive Control, NH2-Met-Arg-Phe-Ala-OH, reference compound] (H-MRFA-OH) |  |  |  |  |  |  |  |  |  |  |  | > 24 h | 
10 |  | C=C1NC(=O)[C@H](Cc2c[nH]c3ccccc23)NC(=O)[C@H](NC(=O)[C@H](CCCCN)NC(=O)[C@@H](N)CC(C)C)CSC[C@@H](C(=O)N[C@H]2C(=O)N3CCC[C@H]3C(=O)NCC(=O)N[C@H](C(=O)N[C@@H](C)C(=O)N[C@@H](CC(=O)O)C(=O)NC(=CC)C(=O)NCC(=O)N[C@@H]3CSC[C@@H]4NC(=O)[C@H](Cc5ccc(O)cc5)NC(=O)[C@@H](CS/C=C\NC4=O)NC(=O)[C@H](CC(N)=O)NC(=O)[C@H](Cc4ccccc4)NC3=O)CS[C@H]2C)NC(=O)[C@H](CC(C)C)NC1=O [F1L R13D] | 8 µg/mL (≈ 3.65 µM) | 8 µg/mL (≈ 3.65 µM) | 2 µg/mL (≈ 0.913 µM) | 64 µg/mL (≈ 29.2 µM) | 32 µg/mL (≈ 14.6 µM) | 32 µg/mL (≈ 14.6 µM) | 8 µg/mL (≈ 3.65 µM) | 4 µg/mL | 1 µg/mL (≈ 0.457 µM) | > 12 h | > 12 h |  | > 24 h
